{
  "source": "patent US12077503B2",
  "about": "“Substituted cyclic amides and their use as herbicides” (FMC CORPORATION, priority 2015, dated 2024)",
  "type_in_all_cases": "in vivo",
  "key": {"Kochia (Kochia scoparia) [1]": {"test_system": "Kochia (Kochia scoparia)", "test": "Test A preemergence", "settings": "Bassia scoparia, pre-emergence, 240 h, 0 to 100 scale where 0 is no effect and 100 is complete control, read-out: Kochia plant response rating", "method_in_brief": "(§1)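 Seeds sprayed preemergence with a directed soil spray, or plants at 2 to 10 cm height and one- to two-leaf stage sprayed postemergence, with test chemicals in a non-phytotoxic solvent mixture containing surfactant, in loam soil–sand blend. Injury rated visually against untreated controls after about 10 d in greenhouse, 0 (no effect) to 100 (complete control).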"}, "[2]": {"test_system": "barnyardgrass (Echinochloa crus-galli)", "test": "Test A preemergence", "settings": "Echinochloa crus-galli, pre-emergence, 240 h, 0 to 100 scale where 0 is no effect and 100 is complete control, read-out: Barnyardgrass plant response rating", "method_in_brief": "as §1"}, "[3]": {"test_system": "giant foxtail (Setaria faberii)", "test": "Test A preemergence", "settings": "Setaria faberi, pre-emergence, 240 h, 0 to 100 scale where 0 is no effect and 100 is complete control, read-out: Foxtail, Giant plant response rating", "method_in_brief": "as §1"}, "[4]": {"test_system": "pigweed (Amaranthus retroflexus)", "test": "Test A preemergence", "settings": "Amaranthus retroflexus, pre-emergence, 240 h, 0 to 100 scale where 0 is no effect and 100 is complete control, read-out: Pigweed plant response rating"}, "[5]": {"test_system": "ragweed (common ragweed, Ambrosia elatior)", "test": "Test A preemergence", "settings": "Ambrosia artemisiifolia, pre-emergence, 240 h, 0 to 100 scale where 0 is no effect and 100 is complete control, read-out: Ragweed plant response rating", "method_in_brief": "as §1"}, "[6]": {"test_system": "ryegrass, Italian (Italian ryegrass, Lolium multiflorum)", "test": "Test A preemergence", "settings": "Lolium multiflorum, pre-emergence, 240 h, 0 to 100 scale where 0 is no effect and 100 is complete control, read-out: Ryegrass, Italian plant response rating", "method_in_brief": "as §1"}, "[7]": {"test_system": "Galium (catchweed bedstraw, Galium aparine)", "test": "Test A postemergence", "settings": "Galium, post-emergence, 240 h, read-out: Galium plant response rating (0 to 100 scale)", "method_in_brief": "as §1"}, "Kochia (Kochia scoparia) [8]": {"test_system": "Kochia (Kochia scoparia)", "test": "Test A postemergence", "settings": "Bassia scoparia, post-emergence, 240 h, read-out: Kochia plant response rating (0 to 100 scale)", "method_in_brief": "as §1"}, "[9]": {"test_system": "barnyardgrass (Echinochloa crus-galli)", "test": "Test A postemergence", "settings": "Echinochloa crus-galli, post-emergence, 240 h, read-out: Barnyardgrass plant response rating (0 to 100 scale)", "method_in_brief": "as §1"}, "[10]": {"test_system": "blackgrass (Alopecurus myosuroides)", "test": "Test A postemergence", "settings": "Alopecurus myosuroides, post-emergence, 240 h, read-out: Blackgrass plant response rating (0 to 100 scale)", "method_in_brief": "as §1"}, "corn (Zea mays)": {"test_system": "corn (Zea mays)", "test": "Test A postemergence", "settings": "Zea mays, post-emergence, 240 h, read-out: Corn plant response rating (0 to 100 scale)", "method_in_brief": "as §1"}, "[11]": {"test_system": "giant foxtail (Setaria faberii)", "test": "Test A postemergence", "settings": "Setaria faberi, post-emergence, 240 h, read-out: Foxtail, Giant plant response rating (0 to 100 scale)", "method_in_brief": "as §1"}, "[12]": {"test_system": "pigweed (Amaranthus retroflexus)", "test": "Test A postemergence", "settings": "Amaranthus retroflexus, post-emergence, 240 h, read-out: Pigweed plant response rating (0 to 100 scale)", "method_in_brief": "as §1"}, "[13]": {"test_system": "ragweed (common ragweed, Ambrosia elatior)", "test": "Test A postemergence", "settings": "Ambrosia artemisiifolia, post-emergence, 240 h, read-out: Ragweed plant response rating (0 to 100 scale)", "method_in_brief": "as §1"}, "[14]": {"test_system": "ryegrass, Italian (Italian ryegrass, Lolium multiflorum)", "test": "Test A postemergence", "settings": "Lolium multiflorum, post-emergence, 240 h, read-out: Ryegrass, Italian plant response rating (0 to 100 scale)", "method_in_brief": "as §1"}, "[15]": {"test_system": "wheat (Triticum aestivum)", "test": "Test A postemergence", "settings": "Triticum aestivum, post-emergence, 240 h, read-out: Wheat plant response rating (0 to 100 scale)", "method_in_brief": "as §1"}, "[16]": {"test_system": "barnyardgrass (Echinochloa crus-galli)", "test": "Test B flooded paddy test", "settings": "Echinochloa crus-galli, 250 g ai/ha, Flood; 0 to 100 scale where 0 is no effect and 100 is complete control; read-out: Barnyardgrass plant response rating", "method_in_brief": "(§2)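 Plants at 2-leaf stage flooded to 3 cm above soil, with compounds applied directly to paddy water and that depth maintained. Plants kept in greenhouse 13–15 d. Visual rating versus controls on a 0 (no effect) to 100 (complete control) scale.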"}, "[17]": {"test_system": "ducksalad (Heteranthera limosa)", "test": "Test B flooded paddy test", "settings": "Heteranthera limosa, 250 g ai/ha, Flood; 0 to 100 scale where 0 is no effect and 100 is complete control; read-out: Ducksalad plant response rating", "method_in_brief": "as §2"}, "rice (Oryra sativa)": {"test_system": "rice (Oryra sativa)", "test": "Test B flooded paddy test", "settings": "Oryza sativa, 250 g ai/ha, Flood; 0 to 100 scale where 0 is no effect and 100 is complete control; read-out: Rice plant response rating", "method_in_brief": "as §2"}, "[18]": {"test_system": "sedge, umbrella (small-flower umbrella sedge, Cyperus difformis)", "test": "Test B flooded paddy test", "settings": "Cyperus difformis, 250 g ai/ha, Flood; 0 to 100 scale where 0 is no effect and 100 is complete control; read-out: Sedge, Umbrella plant response rating", "method_in_brief": "as §2"}, "[19]": {"settings": "125 g ai/ha, preemergence, visual injury rating, approximately 10 d"}, "[20]": {"settings": "125 g ai/ha, postemergence, visual injury vs untreated controls after approx. 10 d, 0 = no effect, 100 = complete control"}, "[21]": {"settings": "Postemergence, 31 g ai/ha, 0 is no effect, 100 is complete control"}},
  "data": [
    {"compound": "Cc1cc([C@H]2CN(C)C(=O)[C@@H]2C(=O)Nc2cccc(F)c2F)no1", "note": "[Compound 1237]", "values": [
      {"measurement": "pest or weed control at 31 g/ha", "setting": "Kochia (Kochia scoparia) [1]; 31 g ai/ha, Preemergence", "value": 0, "unit": "%"},
      {"measurement": "pest or weed control at 125 g/ha", "setting": "Kochia (Kochia scoparia) [1]; [19]", "value": 0, "unit": "%"},
      {"measurement": "pest or weed control at 31 g/ha", "setting": "[2]; 31 g ai/ha, Preemergence", "value": 0, "unit": "%"},
      {"measurement": "pest or weed control at 125 g/ha", "setting": "[2]; [19]", "value": 70, "unit": "%"},
      {"measurement": "pest or weed control at 31 g/ha", "setting": "[3]; 31 g ai/ha, Preemergence", "value": 20, "unit": "%"},
      {"measurement": "pest or weed control at 125 g/ha", "setting": "[3]; [19]", "value": 60, "unit": "%"},
      {"measurement": "pest or weed control at 31 g/ha", "setting": "[4]; 31 g ai/ha, Preemergence", "value": 0, "unit": "%"},
      {"measurement": "pest or weed control at 125 g/ha", "setting": "[4]; [19]", "value": 0, "unit": "%"},
      {"measurement": "pest or weed control at 31 g/ha", "setting": "[5]; 31 g ai/ha, Preemergence", "value": 0, "unit": "%"},
      {"measurement": "pest or weed control at 125 g/ha", "setting": "[5]; [19]", "value": 0, "unit": "%"},
      {"measurement": "pest or weed control at 31 g/ha", "setting": "[6]; 31 g ai/ha, Preemergence", "value": 0, "unit": "%"},
      {"measurement": "pest or weed control at 125 g/ha", "setting": "[6]; [19]", "value": 0, "unit": "%"},
      {"measurement": "pest or weed control at 125 g/ha", "setting": "[7]; [20]", "value": 0, "unit": "%"},
      {"measurement": "pest or weed control at 31 g/ha", "setting": "[7]; [21]", "value": 0, "unit": "%"},
      {"measurement": "pest or weed control at 125 g/ha", "setting": "Kochia (Kochia scoparia) [8]; [20]", "value": 0, "unit": "%"},
      {"measurement": "pest or weed control at 31 g/ha", "setting": "Kochia (Kochia scoparia) [8]; [21]", "value": 0, "unit": "%"},
      {"measurement": "pest or weed control at 125 g/ha", "setting": "[9]; [20]", "value": 20, "unit": "%"},
      {"measurement": "pest or weed control at 31 g/ha", "setting": "[9]; [21]", "value": 0, "unit": "%"},
      {"measurement": "pest or weed control at 125 g/ha", "setting": "[10]; [20]", "value": 0, "unit": "%"},
      {"measurement": "pest or weed control at 31 g/ha", "setting": "[10]; [21]", "value": 0, "unit": "%"},
      {"measurement": "plant injury at 125 g/ha", "setting": "corn (Zea mays); [20]", "value": 0, "unit": "%"},
      {"measurement": "plant injury at 31 g/ha", "setting": "corn (Zea mays); [21]", "value": 0, "unit": "%"},
      {"measurement": "pest or weed control at 125 g/ha", "setting": "[11]; [20]", "value": 20, "unit": "%"},
      {"measurement": "pest or weed control at 31 g/ha", "setting": "[11]; [21]", "value": 0, "unit": "%"},
      {"measurement": "pest or weed control at 125 g/ha", "setting": "[12]; [20]", "value": 0, "unit": "%"},
      {"measurement": "pest or weed control at 31 g/ha", "setting": "[12]; [21]", "value": 0, "unit": "%"},
      {"measurement": "pest or weed control at 125 g/ha", "setting": "[13]; [20]", "value": 0, "unit": "%"},
      {"measurement": "pest or weed control at 31 g/ha", "setting": "[13]; [21]", "value": 0, "unit": "%"},
      {"measurement": "pest or weed control at 125 g/ha", "setting": "[14]; [20]", "value": 0, "unit": "%"},
      {"measurement": "pest or weed control at 31 g/ha", "setting": "[14]; [21]", "value": 0, "unit": "%"},
      {"measurement": "plant injury at 125 g/ha", "setting": "[15]; [20]", "value": 0, "unit": "%"},
      {"measurement": "plant injury at 31 g/ha", "setting": "[15]; [21]", "value": 0, "unit": "%"},
      {"measurement": "pest or weed control at 250 g/ha", "setting": "[16]", "value": 0, "unit": "%"},
      {"measurement": "pest or weed control at 250 g/ha", "setting": "[17]", "value": 65, "unit": "%"},
      {"measurement": "pest or weed control at 250 g/ha", "setting": "rice (Oryra sativa)", "value": 0, "unit": "%"},
      {"measurement": "pest or weed control at 250 g/ha", "setting": "[18]", "value": 0, "unit": "%"}
    ]}
  ]
}
